Experimental data as given in patent publication US4061748A, “7-(α-(4 -Hydroxy-1,5-naphthyridine-3-carbonamido)-α-phenylacetamido) cephalosporin derivatives” (Sumitomo Chemical Company, Limited, priority 1975, dated 1977).
Values after ≈ are worked out from the molar mass of the structure shown.

Experiments:
[1] = tested on: Enterobacter aerogenes No. 75; assay: Minimum inhibitory concentration, nutrient broth dilution method; type: cell-based; details: Klebsiella aerogenes
Procedure: (§1) The minimum inhibitory concentrations obtained with the example compounds, Compound (A) and Compound (B), against the following organisms representing 6 genera are shown in Table 1.
(§2) MIC was determined by the nutrient broth dilution method.

Escherichia coli NIHJ = assay: as above; type: cell-based
Procedure: as §1, §2

[2] = tested on: Klebsiella pneumoniae PCI 602; assay: as above; type: cell-based; details: PCI602
Procedure: as §1, §2

[3] = tested on: Proteus mirabilis GN 2425; assay: as above; type: cell-based; details: GN2425
Procedure: as §1, §2

Pseudomonas aeruginosa T [4] = assay: as above; type: cell-based
Procedure: as §1, §2

Serratia No. 72 = assay: as above; type: cell-based
Procedure: as §1, §2

Escherichia coli No. 37 [5] = assay: Minimum inhibitory concentration, nutrient broth dilution method (Table 3); type: cell-based
Procedure: as §2

Serratia No. 75 [6] = assay: as above; type: cell-based
Procedure: as §2

[7] = Antibiotic serum concentrations in mice following subcutaneous administration (disc method bioassay); type: in vivo, ICR-SLC strain mice; details: mouse, sc, 50 mg/kg; for Cmax: read-out: Peak concentration
Procedure: The antibiotic serum concentrations of the six cephalosporins following subcutaneous administration at 50 mg/kg to ICR-SLC strain mice are shown in Table 2.
The bioassay was carried out according to the disc method using
Pseudomonas aeruginosa.

Escherichia coli No. 37 [8] = assay: Median protective dose against intraperitoneal infection in mice; type: in vivo, Escherichia coli; male ICR-SLC strain mice; details: sc; Escherichia coli No. 37, intraperitoneal infection; two subcutaneous treatments, 1 and 4 hours after infection; read-out: PD50
Source text: (§3) The relative activities of the compounds of the present invention, Compound (A) and Compound (B) against various intraperitoneal infections in mice evaluated by mean median protective doses (subcutaneously administered) are shown in Table 3.
(§4) For each test, eight male ICR-SLC strain mice were used at each dose

Pseudomonas aeruginosa T [9] = assay: as above; type: in vivo, Pseudomonas aeruginosa; male ICR-SLC strain mice; details: sc, two subcutaneous treatments, 1 and 4 hours after infection, read-out: PD50
Source text: as §3, §4

Serratia No. 75 [10] = assay: as above; type: in vivo, Serratia; male ICR-SLC strain mice; details: sc; Serratia No. 75, intraperitoneal infection; two subcutaneous treatments, 1 and 4 hours after infection; read-out: PD50
Source text: as §3, §4

[11] = tested on: Enterobacter aerogenes No. 75; assay: as above; type: in vivo, Enterobacter aerogenes; male ICR-SLC strain mice; details: Klebsiella aerogenes, sc; Enterobacter aerogenes No. 75, intraperitoneal infection; two subcutaneous treatments, 1 and 4 hours after infection; read-out: PD50
Source text: as §3, §4

| Compound | MIC [1] [µg/mL] | MIC (Escherichia coli NIHJ) [µg/mL] | MIC [2] [µg/mL] | MIC [3] [µg/mL] | MIC (Pseudomonas aeruginosa T [4]) [µg/mL] | MIC (Serratia No. 72) [µg/mL] | MIC (Escherichia coli No. 37 [5]) [µg/mL] | MIC (Serratia No. 75 [6]) [µg/mL] | Cmax [7] [ng/mL] | ED50 (Escherichia coli No. 37 [8]) [mg/kg] | ED50 (Pseudomonas aeruginosa T [9]) [mg/kg] | ED50 (Serratia No. 75 [10]) [mg/kg] | ED50 [11] [mg/kg] | half-life [7] [min] |
| --- | --- | --- | --- | --- | --- | --- | --- | --- | --- | --- | --- | --- | --- | --- |
| CC(=O)OCC1=C(C(=O)O)N2C(=O)C(NC(=O)[C@H](NC(=O)c3cnc4ccccc4c3O)c3ccccc3)C2SC1 (stereo partly drawn) [Compound (A), sodium 7-[D-α-(4-hydroxyquinoline-3-carboxyamino)-α-phenylacetamido] cephalosporanate, reference compound] | 25 | 6.25 | 0.78 | 25 | 12.5 | 100 | 12.5 | 100 | < 900 | > 200 | > 100 | > 150 | 200 | – |
| CC(=O)OCC1=C(C(=O)O)N2C(=O)C(NC(=O)[C@H](NC(=O)c3cnccc3O)c3ccccc3)C2SC1 (stereo partly drawn) [Compound (B), sodium 7-[D-α-(4-hydroxypyridine-3-carboxyamino)-α-phenylacetamido] cephalosporanate, reference compound] | 25 | 12.5 | 12.5 | 50 | 25 | > 200 | 25 | > 200 | 26000 | 170 | 92 | > 150 | 170 | 30 |
| CC(=O)OCC1=C(C(=O)O)N2C(=O)C(NC(=O)[C@H](NC(=O)c3cnc4cccnc4c3O)c3ccccc3)C2SC1 (stereo partly drawn) [Example 1, 7-[D-α-(4-Hydroxy-1,5-naphthyridine-3-carboxyamido)-α-phenylacetamido] cephalosporanic acid] | 6.25 (≈ 10.8 µM) | 3.13 (≈ 5.42 µM) | 1.56 (≈ 2.7 µM) | 12.5 (≈ 21.6 µM) | 6.25 (≈ 10.8 µM) | 50 (≈ 86.6 µM) | 6.25 (≈ 10.8 µM) | 50 (≈ 86.6 µM) | 44000 | 50 | 18 | 65 | 50 | 25 |
| Cc1nnc(SCC2=C(C(=O)O)N3C(=O)C(NC(=O)[C@H](NC(=O)c4cnc5cccnc5c4O)c4ccccc4)C3SC2)s1 (stereo partly drawn) [Example 2, 7-[D-α-(4-Hydroxy-1,5-naphthyridine-3-carboxyamido)-α-phenylacetamido]-3-(2-methyl-1,3,4-thiadiazole-5-yl)thiomethyl-3-cephem-4-carboxylicacid] | 3.13 (≈ 4.82 µM) | 1.56 (≈ 2.4 µM) | 0.78 (≈ 1.2 µM) | 12.5 (≈ 19.2 µM) | 6.25 (≈ 9.62 µM) | 12.5 (≈ 19.2 µM) | 6.25 (≈ 9.62 µM) | 12.5 (≈ 19.2 µM) | 38000 | 41 | 23 | 30 | 28 | 35 |
| Cn1nnnc1SCC1=C(C(=O)O)N2C(=O)C(NC(=O)[C@H](NC(=O)c3cnc4cccnc4c3O)c3ccccc3)C2SC1 (some centres unmarked) [Example 3] | 3.13 (≈ 4.94 µM) | 0.78 (≈ 1.23 µM) | 0.39 (≈ 0.615 µM) | 12.5 (≈ 19.7 µM) | 12.5 (≈ 19.7 µM) | 12.5 (≈ 19.7 µM) | 3.13 (≈ 4.94 µM) | 6.25 (≈ 9.86 µM) | 24000 | 28 | 28 | 25 | 25 | 25 |
| O=C(O)C1=C(CSc2cnn[nH]2)CSC2C(NC(=O)[C@H](NC(=O)c3cnc4cccnc4c3O)c3ccccc3)C(=O)N12 (stereo partly drawn) [Example 4, 7-[d-α-(4-hydroxy-1,5-naphthyridine-3-carboxyamido)-α-phenylacetamido]-3-(1,2,3-triazole-5-yl)thiomethyl-3-cephem-4-carboxylic acid] | 3.13 (≈ 5.06 µM) | 1.56 (≈ 2.52 µM) | 1.56 (≈ 2.52 µM) | 25 (≈ 40.4 µM) | 12.5 (≈ 20.2 µM) | 25 (≈ 40.4 µM) | 6.25 (≈ 10.1 µM) | 12.5 (≈ 20.2 µM) | 26000 | 45 | 30 | 30 | 30 | 30 |
